Assay: Stability of 10-nitro oleic acid (OA-NO2) in olive oil, quantified by LC-MS/MS
Assay type: physicochemical
Method: Stability experiments were conducted using Bertolli extra light olive oil. Methanol soluble impurities were extracted twice. […] Olive oil is highly hydrophobic and liposomes have been previously shown to stabilize nitrated linoleic acid. The composition of Olive oil used was as follows: total fat: 14 g, saturated fat: 9%, polyunsaturated fat: 9%, Monounsaturated Fat: 45%
First, methanol-soluble substances were extracted from olive oil by applying 6 volumes of methanol per volume of oil and vortexing for a minute. The triglyceride containing fraction was obtained and the extraction was repeated. The remaining triglycerides were dried under vacuum to eliminate remaining organic solvents. […]
At the different time points, aliquot by triplicate were obtained, fatty acids were extracted from the triglyceride matrix using a 4:1 ratio of methanol:triglyceride, diluted to a final concentration of 100 nM and quantified using liquid chromatography coupled to mass spectrometry. […] The nitrated oleic acid was detected using the multiple reaction monitoring (MRM) process in the negative ion mode performed on a 4000 QTRAP triple quadrupole (Applied Biosystems). […] The peak areas were integrated using Analyst 1.5.1 software (Applied Biosystems) and external standard curves were performed for quantification purposes.

stability in olive oil (percentage of the starting concentration) (750 μM in extracted Bertolli extra light olive oil, stored in the dark at 22° C., 37° C. and 50° C., periods of up to 20 days (FIG. 1: 19 days)): stable
decrease in stability after 135 days (750 μM in olive oil, samples incubated at 22° C., 37° C., after 135 days): about 15%
Compound: CCCCCCCC/C(=C\CCCCCCCC(=O)O)[N+](=O)[O-] [10-nitro oleic acid]

— patent US8937194B2, “Topical compositions containing nitro fatty acids” (Nitromega Corp., priority 2008, dated 2015)
